These results are taken from PubChem BioAssay AID256 (DTP/NCI, 2004).

This test relates to CD2F1 mice, L1210 leukemia ip, survival T/C. Nature of the test: NCI In Vivo Anticancer Drug Screen. Data for tumor model L1210 Leukemia (intraperitoneal) in CD2F1 (CDF1) mice. To be noted: endpoint: mean survival time, higher = longer survival. In outline: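 Each value reflects a quotient of treated over vehicle control outcomes in mice with a transplanted tumor.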
Setting [1] is: dose: 100.0 mg/kg/injection, schedule: Q04DX003 (ip), vehicle: saline with Tween-80.
Setting [2] is: dose: 200.0 mg/kg/injection, schedule: Q04DX003 (ip), vehicle: saline with Tween-80.
The mark [3] stands for this setting: dose: 400.0 mg/kg/injection, schedule: Q04DX003 (ip), vehicle: saline with Tween-80.

The structures appear in SMILES notation. “And” between values parts separate entries of the source, which are not always exact repeats. Equal values may be shown once. Toxic doses and inconclusive results are not listed.

For `Cc1cc(=O)[nH]c2c(C)cc(Cl)cc12`, the T/C was 106 % of control under setting [1], 109 % of control under setting [2] and 97 % of control under setting [3].
`O=C(O)c1ccccc1C(=O)Nc1ccc([N+](=O)[O-])cc1`: the T/C is, setting by setting: under setting [1], 98 % of control; under setting [3], 91 % of control.
`NNC(=O)c1nc(N)n[nH]1`: the T/C was 101 % of control under setting [1], 103 % of control under setting [2] and 104 % of control under setting [3].
On to `O=C1C=CC(=O)C2CC=CCC12` (stereo not drawn), for which the T/C is 103 % of control (dose: 10.0 mg/kg/injection, schedule: Q01DX009 (ip), vehicle: saline with Tween-80); 101 % of control (dose: 12.5 mg/kg/injection, schedule: Q04DX003 (ip), vehicle: saline with Tween-80); 107 % of control (dose: 20.0 mg/kg/injection, schedule: Q01DX009 (ip), vehicle: saline with Tween-80); 104 % of control (dose: 25.0 mg/kg/injection, schedule: Q04DX003 (ip), vehicle: saline with Tween-80); 98 % of control (dose: 40.0 mg/kg/injection, schedule: Q01DX009 (ip), vehicle: saline with Tween-80); 98 % of control (dose: 50.0 mg/kg/injection, schedule: Q04DX003 (ip), vehicle: saline with Tween-80). Moreover, the T/C under setting [1] was 100 % of control, the T/C under setting [2] is 93 % of control and the T/C under setting [3] is 100 % of control.
Take `C=C.O=C(O)/C=C\C(=O)O.[Mn]`: the T/C by setting is: (dose: 1.0 mg/kg/injection, schedule: Q01DX009 (ip), vehicle: saline with Tween-80) 95 % of control; (dose: 1.0 mg/kg/injection, schedule: Q04DX003 (ip), vehicle: saline with Tween-80) 97 % of control; (dose: 2.0 mg/kg/injection, schedule: Q01DX009 (ip), vehicle: saline with Tween-80) 95 % of control; (dose: 2.0 mg/kg/injection, schedule: Q04DX003 (ip), vehicle: saline with Tween-80) 95 % of control; (dose: 4.0 mg/kg/injection, schedule: Q04DX003 (ip), vehicle: saline with Tween-80) 91 % of control.
With `O=C1NCCCS1(=O)=O`, the T/C (dose: 75.0 mg/kg/injection, schedule: Q01DX001 (ip), vehicle: saline) was 108 % of control.
With `O=C(O)c1ccccc1NCNc1ccccc1C(=O)O`, the T/C reads like this: under setting [1], 100 % of control; under setting [2], 93 % of control; under setting [3], 110 % of control.
The matching figures for `CC(Br)C(=O)NCC(=O)O` (stereo not drawn): 92 % of control, 91 % of control and 95 % of control.
Regarding `Cc1[nH]c2cc(Cl)ccc2c1CC(=O)O`, the T/C is 101 % of control (dose: 100.0 mg/kg/injection, schedule: Q01DX001 (ip), vehicle: other); 98 % of control (dose: 200.0 mg/kg/injection, schedule: Q01DX001 (ip), vehicle: other); 98 % of control (dose: 400.0 mg/kg/injection, schedule: Q01DX001 (ip), vehicle: other).
`CS(=O)(=O)c1ccc(NN)c([N+](=O)[O-])c1`: the T/C runs as follows: under setting [1], 98 % of control; under setting [2], 98 % of control; under setting [3], 102 % of control.
With `O=C(NCC#CCN1CCCC1)Nc1cccc(Cl)c1`, the T/C was 102 % of control (dose: 12.5 mg/kg/injection, schedule: Q04DX002 (ip), vehicle: saline with Tween-80); 92 % of control (dose: 25.0 mg/kg/injection, schedule: Q01DX001 (ip), vehicle: saline with Tween-80); 95 % of control (dose: 25.0 mg/kg/injection, schedule: Q04DX002 (ip), vehicle: saline with Tween-80); 106 % of control (dose: 50.0 mg/kg/injection, schedule: Q01DX001 (ip), vehicle: saline with Tween-80); 87 % of control (dose: 50.0 mg/kg/injection, schedule: Q04DX002 (ip), vehicle: saline with Tween-80); 92 % of control and 93 % of control (dose: 100.0 mg/kg/injection, schedule: Q01DX001 (ip), vehicle: saline with Tween-80). Moreover, the T/C (dose: 100.0 mg/kg/injection, schedule: Q04DX002 (ip), vehicle: saline with Tween-80) is 98 % of control.
`O=C(O)C1C2C=CC(C2)C1C(=O)O` (stereo not drawn): the T/C is 97 % of control under setting [1], 92 % of control under setting [2] and 98 % of control under setting [3].
For the molecule `CS(=O)(=O)Nc1ccc(Nc2c3ccccc3nc3cc([N+](=O)[O-])ccc23)cc1`, the T/C is, setting by setting: (dose: 7.0 mg/kg/injection, schedule: Q01DX009 (ip), vehicle: saline) 237 % of control; (dose: 10.0 mg/kg/injection, schedule: Q01DX009 (ip), vehicle: saline) 155 % of control; (dose: 12.5 mg/kg/injection, schedule: Q01DX001 (ip), vehicle: saline) 175 % of control; (dose: 25.0 mg/kg/injection, schedule: Q01DX001 (ip), vehicle: saline) 195 % of control; (dose: 50.0 mg/kg/injection, schedule: Q01DX001 (ip), vehicle: saline) 170 % of control; (dose: 100.0 mg/kg/injection, schedule: Q01DX001 (ip), vehicle: saline) 116 % of control.
Regarding `C#CCOC(=O)NCCC`, the T/C (dose: 100.0 mg/kg/injection, schedule: Q04DX003 (ip), vehicle: Klucel (hydroxypropylcellulose) (HPC)) is 96 % of control and the T/C (dose: 200.0 mg/kg/injection, schedule: Q04DX003 (ip), vehicle: Klucel (hydroxypropylcellulose) (HPC)) is 100 % of control.
